Like-named read-outs stand apart in the source and are kept apart here.
Tests used:
[1] = system: human beta-coronavirus OC43–CoV; assay: OC43-CoV cytopathic effect antiviral assay in HeLa cells; format: cell-based
SARS-CoV-2 3CLpro = SARS-CoV-2 3CLpro (Severe acute respiratory syndrome coronavirus 2, UniProt P0DTD1); format: biochemical
[2] = system: human beta-coronavirus OC43–CoV; assay: OC43-CoV cytopathic effect antiviral assay in MRC-5 cells; format: cell-based; details: MRC5, 120 h, read-out: OC-43 MRC-5 Cells EC50
SARS-CoV-2 = format: cell-based
COVID-19 = COVID-19 hospitalized patients; ref Beigel et al., 2020; cited from earlier work
[3] = no reducing agent vs 1 mM GSH vs 1 mM DTT

Row | SMILES | Antiviral activity against OC43 (in words) [1] | Concentrations at which SARS-CoV-2 3CLpro was inhibited (SARS-CoV-2 3CLpro; absence of reducing agent only) [µM] | Effect of reducing conditions on inhibition potency (SARS-CoV-2 3CLpro; [3]) | Inhibition of SARS-CoV-2 3CLpro activity in SAMDI-MS assay (in words) (SARS-CoV-2 3CLpro; reducing conditions (DTT)) | EC50 [2] [µM] | Inhibition of SARS-CoV-2 replication (in words) (SARS-CoV-2) | Toxicity to Vero cells (in words) (VeroE6 cells) | Cytotoxicity (in words) (HeLa cells) | Concentrations at which SARS-CoV-2 3CLpro was inhibited (SARS-CoV-2 3CLpro) [µM] | Effect of reducing conditions on inhibition potency (SARS-CoV-2 3CLpro) | Inhibition of SARS-CoV-2 3CLpro activity in SAMDI-MS assay (in words) (SARS-CoV-2 3CLpro) | Inhibition of SARS-CoV-2 3CLpro activity in SAMDI-MS assay (in words) (SARS-CoV-2 3CLpro; reducing conditions (DTT), listed as shikonin) | Effect on mortality (COVID-19)
1 | CCN(CC)C(=S)SSC(=S)N(CC)CC [Disulfiram] | inactive | > 30 | impacted by the reducing condition | did not inhibit | > 100 | did not inhibit SARS-CoV-2 replication | – | – | – | – | – | – | –
2 | O=c1c2ccccc2[se]n1-c1ccccc1 [Ebselen] | inactive | – | – | – | > 100 | did not inhibit SARS-CoV-2 replication | toxic to Vero cells | cytotoxic | > 30 | impacted by the reducing condition | did not inhibit | – | –
3 | CC(C)=CC[C@@H](O)C1=CC(=O)c2c(O)ccc(O)c2C1=O [Shikonin] | inactive | – | marked loss of inhibition in the presence of DTT or GSH | failed to inhibit | > 100 | did not inhibit SARS-CoV-2 replication | toxic to Vero cells | cytotoxic | – | – | – | did not inhibit | –
4 | CCC(CC)COC(=O)[C@H](C)N[P@](=O)(OC[C@H]1O[C@@](C#N)(c2ccc3c(N)ncnn23)[C@H](O)[C@@H]1O)Oc1ccccc1 [Remdesivir] | – | – | – | – | 0.21 | – | – | – | – | – | – | – | no significant effect
